“Also recorded” adds a separate entry of the source.
Tests used:
[1] = passage of the blood brain barrier; assay type: in vivo, mouse; settings: intact mice, inferred from inhibition of brain PKC-λ/ι
β-secretase (BACE1) = assay: β-secretase activity (BACE1) in LA1-5s neuroblastoma cells; assay type: cell-based, human; settings: LA1-5s cells
Procedure: Relative bar values in panel a are mean±SEM of 6 determinations. Asterisks: *, P<0.05; **, P<0.01; ***, P<0.001 (ANOVA). Values in panel b are means of 2-4 determinations.
Shown here are Mean±SEM (N=4) values relative to the mean initial basal or insulin-stimulated level of indicated immunoreactive protein/peptide. Asterisks: *, P<0.05; **, P<0.01; ***, P<0.001 (ANOVA).
β-Secretase Activity (BACE1; beta-site APP-cleaving enzyme-1). β-Secretase was measured was measured using a kit from Thermo-Fisher.

70 kDa PKC-λ/ι = target: T1, 70 kDa PKC-λ/ι (Mus musculus, UniProt Q62074); assay: brain aPKC (PKC-λ/ι) phosphorylation/activity in mice; assay type: in vivo
T1 construct: insulin-sensitive 70 kDa PKC-λ/ι in brains of Het-MλKO mice; from tissue; host or cells: mouse brain homogenate
T1 sequence (Q62074 1-595): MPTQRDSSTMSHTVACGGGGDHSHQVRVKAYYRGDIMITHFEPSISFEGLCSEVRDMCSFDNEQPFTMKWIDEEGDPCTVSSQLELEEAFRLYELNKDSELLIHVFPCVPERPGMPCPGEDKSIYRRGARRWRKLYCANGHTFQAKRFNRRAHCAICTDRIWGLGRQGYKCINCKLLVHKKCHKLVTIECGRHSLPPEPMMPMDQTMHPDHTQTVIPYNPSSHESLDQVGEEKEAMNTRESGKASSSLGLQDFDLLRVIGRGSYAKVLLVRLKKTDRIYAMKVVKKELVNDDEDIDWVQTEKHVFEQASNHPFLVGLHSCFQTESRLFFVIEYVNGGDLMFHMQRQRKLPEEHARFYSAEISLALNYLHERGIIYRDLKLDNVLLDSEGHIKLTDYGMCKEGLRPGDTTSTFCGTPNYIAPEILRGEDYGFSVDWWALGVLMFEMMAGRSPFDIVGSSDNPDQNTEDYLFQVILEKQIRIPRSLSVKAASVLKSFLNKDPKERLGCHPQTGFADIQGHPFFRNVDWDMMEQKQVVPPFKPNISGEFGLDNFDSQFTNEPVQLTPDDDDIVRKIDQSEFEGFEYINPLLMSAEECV
Text: Mouse Studies. Brain samples were obtained from normal and insulin-resistant mice and monkeys used previously, and includes mice originally used in studies of insulin signaling and resistance in liver: (a) 4-6 month old C57Bl/6 mice used in studies of high-fat-feeding [USF Vivarium] [6]; 4-6 month-old male C57Bl/6 ob/ob and lean ob+ mice (Jackson Labs, Bar Harbor, Maine); and (c) 10-12 month-old C57Bl/6 Het-MλKO mice [USF Vivarium] [8]. […] Where indicated normal mice were given a single SC injection of saline or saline containing 1.5 mg/kg ICAPP to follow time-related alterations in brain signaling factors. Where indicated, mice were treated intraperitoneally (IP) with insulin (1 U/kg body weight) or vehicle 15-min before euthanization by administration of Xylazine/Ketamine, followed by whole body perfusion with phosphate-buffered saline and rapid removal of brain and other tissues.
Tissue Preparations. As described, mouse brains were hemisected sagittally, and one-half was frozen in liquid N2, stored at −80° C., and samples thereof were homogenized in buffer containing 0.25M sucrose, 20 mM Tris/HCl (pH, 7.5), 2 mmol/l EGTA, 2 mM EDTA, 1 mM phenlysulfonoylfluoride (PMSF), 20 μg/ml leupeptin, 10 μg/ml aprotinin, 2 mM Na4P2O7, 2 mM Na3VO4, 2 mM NaF, and 1 μM microcystin, and then supplemented with 1% TritonX-100, 0.6% Nonidet and 150 mM NaCl.
Western Analyses. As described, Western analyses were conducted with rabbit antisera or mouse monoclonal antibodies (mMab), using: anti-aPKC (Santa Cruz Biotechnologies, Santa Cruz, CA); anti-phospho-threonine-560/555-PKC-ζ/λ/ι (Invitrogen, Carlsbad, CA); anti-p-serine-256-FoxO1 and anti-FoxO1 (Abnova, Walnut, CA); anti-Akt (mMab), anti-phospho-serine-473-Akt, anti-phospho-serine-9-GSK3P anti-GSK313, anti-phospho-serine-253-FoxO3a, anti-FoxO3a, anti-phospho-serine-256-FoxO1, anti-phospho-serine-193-FoxO4; anti-FoxO1, anti-phospho-serine-2448-mTOR, anti-mTOR, anti-β-amyloid (anti-5-10 kDa-Aβ1-40/42) and anti-amyloid precursor protein (anti-120 kDa-APP) (Cell Signaling Technologies, Danvers, MA); and anti-phospho-serine-202-tau, anti-phospho-threonine-231-tau (Gene Tex, Irvine, CA). Samples from experimental groups were compared on the same blots, and routinely checked with loading controls. Note that: insulin-sensitive 70 kDa aPKC is largely PKC-ζ in mouse brain and orthologous PKC-ι (98% aa homology) in monkey and other primate brains; brain PKC-ζ exists largely as a 50 kDa moiety that, lacking a regulatory domain, is constitutively-active and unresponsive to insulin.
Where indicated, mice were randomly treated with insulin (1 unit/kg/bw i.p.) 15 min before being euthanized by administration of xylazine/ketamine, followed by whole-body perfusion with PBS and rapid removal of brain and other tissues.

aPKC = target: T2, aPKC (Homo sapiens, UniProt P41743); design: endogenous in cells; settings: previously seen, stated as similar; read-out: IC50, inhibition of aPKC activity in isolated human hepatocytes; cited from earlier work
T2 sequence (P41743 2-596): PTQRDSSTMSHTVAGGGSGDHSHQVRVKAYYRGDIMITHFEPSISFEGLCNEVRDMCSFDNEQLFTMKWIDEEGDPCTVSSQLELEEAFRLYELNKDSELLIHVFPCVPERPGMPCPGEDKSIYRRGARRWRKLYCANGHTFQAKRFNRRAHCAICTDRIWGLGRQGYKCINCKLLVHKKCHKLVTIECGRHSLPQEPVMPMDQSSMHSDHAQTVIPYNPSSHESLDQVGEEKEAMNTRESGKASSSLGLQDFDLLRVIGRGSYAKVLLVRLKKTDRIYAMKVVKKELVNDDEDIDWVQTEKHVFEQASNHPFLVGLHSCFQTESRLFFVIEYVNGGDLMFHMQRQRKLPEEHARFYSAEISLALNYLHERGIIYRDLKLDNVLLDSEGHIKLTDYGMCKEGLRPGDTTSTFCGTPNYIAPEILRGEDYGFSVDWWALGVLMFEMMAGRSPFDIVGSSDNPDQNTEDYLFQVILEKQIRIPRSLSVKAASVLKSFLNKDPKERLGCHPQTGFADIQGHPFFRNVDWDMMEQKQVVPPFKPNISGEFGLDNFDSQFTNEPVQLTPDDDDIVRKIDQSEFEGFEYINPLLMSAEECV

Compound: NC(=O)c1ncn([C@@H]2C[C@H](COP(=O)(O)O)[C@@H](O)[C@H]2O)c1N [ICAPP]
- passage of the blood brain barrier (BBB) [1]: can cross the BBB
- effect on metformin-induced increase in β-secretase activity (β-secretase (BACE1)): dose-dependently inhibited
- effect on insulin-stimulated β-secretase activity (β-secretase (BACE1); 200 nM insulin): dose-dependent decreases
- resting/basal brain aPKC (PKC-λ/ι) activity (70 kDa PKC-λ/ι; Het-MλKO mice, s.c. once daily for 8 days (ICAPP 0.4 mg/kg, ATM 60 mg/kg)): diminished; also recorded: reductions of resting/basal activities of brain Akt and aPKC, comparable to those seen with ATM treatment
- acute insulin activation of brain aPKC (PKC-λ/ι) (70 kDa PKC-λ/ι; Het-MλKO mice, s.c. once daily for 8 days (ICAPP 0.4 mg/kg, ATM 60 mg/kg), insulin 1 U/kg i.p. 15 min): blocked the ability of insulin to activate PKC-λ/ι; also recorded: abrogated
- insulin-dependent brain PKC-λ/ι (aPKC) activity (70 kDa PKC-λ/ι; normal mice, single s.c. dose of ICAPP 1.5 mg/kg, insulin 1 U/kg i.p. 15 min before killing): time-related, well-correlated decreases; also recorded: blocked acute effects of insulin
- IC50 (aPKC): 1 to 10 nM

Reference: US11865125B2, “APKC inhibitors and methods of treating a neurodegenerative disease or disorder” (UNIVERSITY OF SOUTH FLORIDA, priority 2016, dated 2024)
